Reference: patent US20220048876A1, “INSECTICIDAL COMPOUNDS” (SYNGENTA PARTICIPATIONS AG, priority 2018, published 2022)
Read-outs that look alike come from different tables or passages of the source.

Tests used:
Format in all cases: in vivo
[1] = system: Diabrotica balteata; assay: Diabrotica balteata (corn root worm), sprayed maize sprouts; conditions: 96 h, read-out: effect in at least one of the two categories (mortality or growth inhibition); for percent effect (mortality or growth inhibition) at 200 ppm: application rate 200 ppm, L2 larvae, 4 days after infestation
Procedure: Diabrotica balteata (Corn Root Worm)
Maize sprouts placed onto an agar layer in 24-well microtiter plates were treated with aqueous test solutions prepared from 10′000 ppm DMSO stock solutions by spraying. After drying, the plates were infested with L2 larvae (6 to 10 per well). The samples were assessed for mortality and growth inhibition in comparison to untreated samples 4 days after infestation.

[2] = system: Euschistus heros; assay: Euschistus heros (neotropical brown stink bug), sprayed soybean leaves; conditions: 120 h, read-out: effect in at least one of the two categories (mortality or growth inhibition); for percent effect (mortality or growth inhibition) at 200 ppm: application rate 200 ppm, N2 nymphs, 5 days after infestation
Procedure: Euschistus heros(Neotropical Brown Stink Bug)
Soybean leaves on agar in 24-well microtiter plates were sprayed with aqueous test solutions prepared from 10′000 ppm DMSO stock solutions. After drying the leaves were infested with N2 nymphs. The samples were assessed for mortality and growth inhibition in comparison to untreated samples 5 days after infestation.

[3] = system: Tetranychus urticae; assay: Tetranychus urticae (two-spotted spider mite), feeding/contact activity; conditions: 192 h
Procedure: Tetranychus urticae (Two-Spotted Spider Mite):Feeding/Contact Activity
Bean leaf discs on agar in 24-well microtiter plates were sprayed with aqueous test solutions prepared from 10′000 ppm DMSO stock solutions. After drying the leaf discs were infested with a mite population of mixed ages. The samples were assessed for mortality on mixed population (mobile stages) 8 days after infestation.

[4] = system: Plutella xylostella; assay: Plutella xylostella (diamond back moth), artificial diet; conditions: 120 h, read-out: effect in at least one of the two categories (mortality or growth inhibition); for percent effect (mortality or growth inhibition) at 200 ppm: application rate 200 ppm, L2 larvae, 5 days after infestation
Procedure: Plutella xylostella (Diamond Back Moth)
24-well microtiter plates with artificial diet were treated with aqueous test solutions prepared from 10′000 ppm DMSO stock solutions by pipetting. After drying, the plates were infested with L2 larvae (10 to 15 per well). The samples were assessed for mortality and growth inhibition in comparison to untreated samples 5 days after infestation.

[5] = system: Thrips tabaci; assay: Thrips tabaci (onion thrips), feeding/contact activity; conditions: 144 h
Procedure: Thrips tabaci (Onion Thrips) Feeding/Contact Activity
Sunflower leaf discs were placed on agar in 24-well microtiter plates and sprayed with aqueous test solutions prepared from 10′000 ppm DMSO stock solutions. After drying the leaf discs were infested with a thrips population of mixed ages. The samples were assessed for mortality 6 days after infestation.

[6] = system: Spodoptera littoralis; assay: Spodoptera littoralis (Egyptian cotton leaf worm), cotton leaf discs; conditions: foliar, 72 h, read-out: control (mortality, anti-feedant effect or growth inhibition)
Procedure: Spodoptera littoralis (Egyptian Cotton Leaf Worm)
Cotton leaf discs were placed onto agar in 24-well microtiter plates and sprayed with aqueous test solutions prepared from 10′000 ppm DMSO stock solutions. After drying the leaf discs were infested with five L1 larvae. The samples were assessed for mortality, anti-feeding effect, and growth inhibition in comparison to untreated samples 3 days after infestation. Control of Spodoptera littoralis by a test sample is given when at least one of the categories mortality, anti-feedant effect, and growth inhibition is higher than the untreated sample.

[7] = system: Myzus persicae; assay: Myzus persicae (green peach aphid), intrinsic activity; conditions: 120 h
Excerpt: Myzus persicae (Green Peach Aphid). Intrinsic Activity
Test compounds prepared from 10′000 ppm DMSO stock solutions were applied by pipette into 24-well microtiter plates and mixed with sucrose solution. The plates were closed with a stretched Parafilm. A plastic stencil with 24 holes was placed onto the plate and infested pea seedlings were placed directly on the Parafilm. The infested plate was closed with a gel blotting paper and another plastic stencil and then turned upside down. The samples were assessed for mortality 5 days after infestation.

[8] = application rate 200 ppm, mixed population (mobile stages), 8 days after infestation, read-out: mortality
[9] = application rate 200 ppm, mixed ages, 6 days after infestation, read-out: mortality
[10] = application rate 200 ppm, L1 larvae, 3 days after infestation
[11] = test rate 12 ppm, 5 days after infestation, read-out: mortality

Cc1cc(C2=NS[C@@](c3cc(Cl)cc(Cl)c3)(C(F)(F)F)C2)ccc1C(=O)NCC1(C#N)CC1 [Compound A1, N-[(1-cyanocyclopropyl)methy]-4-[(5S)-5-(3,5-dichlorophenyl)-5-(trifluoromethyl)-4H-isothiazol-3-yl]-2-methyl-benzamide]
≥ 80%: percent effect (mortality or growth inhibition) at 200 ppm [1] | percent effect (mortality or growth inhibition) at 200 ppm [2] | mortality at 200 ppm [3, 8] | percent effect (mortality or growth inhibition) at 200 ppm [4] | mortality at 200 ppm [5, 9] | percent control (mortality, anti-feedant effect or growth inhibition) at 200 ppm [6, 10] | mortality at 12 ppm [7, 11]

Cc1cc(C2=COC(c3cc(Cl)cc(Cl)c3)(C(F)(F)F)C2)ccc1C(=O)NCC1(C#N)CC1 (centres unmarked) [Compound A2, N-[(1-cyanocyclopropyl)methyl]-4-[2-(3,5-dichlorophenyl)-2-(trifluoromethyl)-3H-furan-4-yl]-2-methyl-benzamide]
≥ 80%: percent effect (mortality or growth inhibition) at 200 ppm [1] | percent effect (mortality or growth inhibition) at 200 ppm [2] | mortality at 200 ppm [3, 8] | percent effect (mortality or growth inhibition) at 200 ppm [4] | mortality at 200 ppm [5, 9] | percent control (mortality, anti-feedant effect or growth inhibition) at 200 ppm [6, 10] | mortality at 12 ppm [7, 11]

Cc1cc(C2=NO[C@](c3cc(Cl)cc(Cl)c3)(C(F)(F)F)[C@H]2Cl)ccc1C(=O)NCC1(C#N)CC1 [Compound A3, 4-[(4S,5R)-4-chloro-5-(3,5-dichlorophenyl)-5-(trifluoromethyl)-4H-isoxazol-3-yl]-N-[(1-cyanocyclopropyl)methyl]-2-methyl-benzamide]
≥ 80%: percent control (mortality or growth inhibition) at 200 ppm [1] | percent control (mortality or growth inhibition) at 200 ppm [2] | mortality at 200 ppm [3] | percent control (mortality or growth inhibition) at 200 ppm [4] | mortality at 200 ppm [5] | percent control (mortality, anti-feedant effect or growth inhibition) at 200 ppm [6] | mortality at 12 ppm [7]

Cc1cc(C2=NCC(c3cc(Cl)c(F)c(Cl)c3)(C(F)(F)F)C2)ccc1C(=O)NCC1(C#N)CC1 (centres unmarked) [Compound A4, N-[(1-cyanocyclopropyl)methyl]-4-[3-(3,5-dichloro-4-fluorophenyl)-3-(trifluoromethyl)-2,4-dihydropyrrol-5-yl]-2-methyl-benzamide]
≥ 80%: percent effect (mortality or growth inhibition) at 200 ppm [1] | percent effect (mortality or growth inhibition) at 200 ppm [2] | mortality at 200 ppm [3, 8] | percent effect (mortality or growth inhibition) at 200 ppm [4] | mortality at 200 ppm [5, 9] | percent control (mortality, anti-feedant effect or growth inhibition) at 200 ppm [6, 10] | mortality at 12 ppm [7, 11]

Cc1cc(C2=NCC(c3cc(Cl)c(Cl)c(Cl)c3)(C(F)(F)F)C2)ccc1C(=O)NCC1(C#N)CC1 (centres unmarked) [Compound A5, N-[(1-cyanocyclopropyl)methyl]-2-methyl-4-[3-(3,4,5-trichlorophenyl)-3-(trifluoromethyl)-2,4-dihydropyrrol-5-yl]benzamide]
≥ 80%: percent effect (mortality or growth inhibition) at 200 ppm [1] | percent effect (mortality or growth inhibition) at 200 ppm [2] | mortality at 200 ppm [3, 8] | percent effect (mortality or growth inhibition) at 200 ppm [4] | mortality at 200 ppm [5, 9] | percent control (mortality, anti-feedant effect or growth inhibition) at 200 ppm [6, 10] | mortality at 12 ppm [7, 11]
